Source: paper PMC9967645, “OAT3 Participates in Drug–Drug Interaction between Bentysrepinine and Entecavir through Interactions with M8—A Metabolite of Bentysrepinine—In Rats and Humans In Vitro” (Molecules, 2023)

Tests used:
hOAT1 = molecular target: T1, hOAT1 (Homo sapiens, UniProt Q4U2R8); test: In vitro uptake assay in hOAT1-HEK293 cells; type: in vitro ADME; details: Y101 2.0 µM, M8 10 µM; for inhibition of the uptake of ETV in hOAT1-HEK293 cells: ETV 10 µM; for substrate of hOAT1 (uptake in hOAT1-HEK293 vs mock-HEK293 cells): PAH 10 µM
T1 construct: expressed in transfected cells; host or cells: HEK293
T1 sequence (Q4U2R8 1-563): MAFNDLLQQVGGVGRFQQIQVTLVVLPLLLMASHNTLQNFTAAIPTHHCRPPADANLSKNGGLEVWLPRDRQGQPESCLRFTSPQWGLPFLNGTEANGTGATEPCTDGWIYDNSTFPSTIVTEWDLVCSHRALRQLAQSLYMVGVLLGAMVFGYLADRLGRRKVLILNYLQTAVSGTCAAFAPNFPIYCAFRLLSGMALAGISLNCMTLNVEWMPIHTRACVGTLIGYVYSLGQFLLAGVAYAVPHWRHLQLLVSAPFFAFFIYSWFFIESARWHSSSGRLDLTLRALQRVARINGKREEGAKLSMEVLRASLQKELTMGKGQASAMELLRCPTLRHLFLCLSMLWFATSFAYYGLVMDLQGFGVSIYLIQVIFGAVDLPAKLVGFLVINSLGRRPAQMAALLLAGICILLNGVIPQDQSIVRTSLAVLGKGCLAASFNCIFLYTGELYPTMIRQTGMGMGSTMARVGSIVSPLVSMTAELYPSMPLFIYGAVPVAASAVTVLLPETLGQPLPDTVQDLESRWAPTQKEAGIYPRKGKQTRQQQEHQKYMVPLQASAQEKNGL
Description: The hOAT1-HEK293, hOAT3-HEK293 and mock cells were cultured in Dulbecco modified Eagle medium (DMEM) containing 10% fetal bovine serum (FBS) and 1% penicillin/streptomycin in an atmosphere of 5% CO2 air at 37 °C. The HEK293 cells were plated on 24-well plates at a density of 5 × 10^5 cells/well. […] Uptake assay was initiated by adding 1 mL of the transporter buffer containing Y101, M8, ETV or probe substrate. Following incubation with gentle shaking, the uptake was terminated at designated time by removing the transporter buffer and washing cells three times with 1 mL of ice-cold HBSS. Next, substrates of Y101, M8, ETV, PAH and ES in cell monolayer were released by lysing the cells with 0.3 mL of 0.1% Triton X-100 for 2 h and determined by liquid chromatography–tandem mass spectrometry (LC–MS/MS). In the time-course uptake assay, Y101 (2.0 µM) and M8 (10 µM) in the presence or absence of PRO (100 µM) were measured in hOAT1-HEK293, hOAT3-HEK293 and mock cells. The concentration-dependent uptake of M8 was determined in hOAT3-HEK293 cells, and incubation time (5 min) was optimized. The uptake of M8 (10 µM) with or without ETV was examined in hOAT3-HEK293 cells. The uptake of ETV (10 µM) with or without Y101 or M8 was also measured in hOAT1-HEK293 and hOAT3-HEK293 cells, respectively. Furthermore, PAH and ES at concentrations of 10 µM were used as positive control in hOAT1-HEK293 and hOAT3-HEK293 cells, respectively. Protein concentrations were measured by the bicinchoninic acid procedure (Solarbio, Beijing, China) using bovine serum albumin as the standard.
Biological samples were prepared as previously described. Aliquots (50 µL) of urine, plasma, kidney homogenates, or cell lysates were individually mixed with 150 µL methanol and 50 µL working solution of internal standard (acetaminophen or bestatin), followed by vortexing for 1 min and centrifuging at 13,800 g for 10 min. […] The resulting supernatant (1 µL) was subjected to LC-MS/MS for the assessment of Y101, M8, M9 and ETV, respectively. […] The concentrations of ETV, Y101, M8 and M9 were determined by an AB QTRAP 5500 LC–MS/MS System (Foster City, CA, USA) as previously described. […] Analyst1.5.2 software was used for data processing and analysis.

hOAT3 = molecular target: T2, hOAT3 (Homo sapiens, UniProt Q8TCC7); set-up: expressed in transfected cells; host or cells: HEK293; method as in PMID 23313623; details: read-out: Km (affinity with hOAT3); cited from earlier work
T2 sequence (Q8TCC7 1-542): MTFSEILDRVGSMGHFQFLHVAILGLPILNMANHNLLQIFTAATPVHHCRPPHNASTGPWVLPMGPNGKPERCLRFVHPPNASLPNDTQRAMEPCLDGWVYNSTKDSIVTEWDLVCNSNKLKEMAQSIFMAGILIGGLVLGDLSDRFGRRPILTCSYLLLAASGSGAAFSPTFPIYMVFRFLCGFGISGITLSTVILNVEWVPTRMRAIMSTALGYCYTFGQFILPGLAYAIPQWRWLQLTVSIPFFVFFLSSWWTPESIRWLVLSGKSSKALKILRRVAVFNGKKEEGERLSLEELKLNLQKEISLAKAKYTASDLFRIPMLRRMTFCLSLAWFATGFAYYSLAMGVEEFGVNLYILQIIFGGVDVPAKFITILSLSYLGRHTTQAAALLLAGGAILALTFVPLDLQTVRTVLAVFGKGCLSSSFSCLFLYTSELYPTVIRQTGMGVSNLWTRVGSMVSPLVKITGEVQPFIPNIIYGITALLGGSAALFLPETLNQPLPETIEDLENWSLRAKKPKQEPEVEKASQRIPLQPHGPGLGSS

[1] = human, in vivo; cited from earlier work
[2] = concanavalin A and alpha-naphthylisothiocyanate-induced; cited from earlier work
HBV = test system: HBV; set-up: method as in PMID 32277364, PMID 21872478, PMID 19307124, doi:10.1016/S1674-6384(15)60018-1; details: dose-dependent; cited from earlier work
[3] = set-up: method as in PMID 32277364, PMID 29258048; details: healthy Chinese volunteers, phase I; cited from earlier work
[4] = test system: lamivudine and entecavir-resistant HBV; set-up: method as in PMID 32277364, PMID 21872478, PMID 19307124, doi:10.1016/S1674-6384(15)60018-1; details: A64 cells; cited from earlier work

Compound | inhibition of the uptake of ETV in hOAT1-HEK293 cells (hOAT1) | substrate of hOAT1 (uptake in hOAT1-HEK293 vs mock-HEK293 cells) (hOAT1) | Km (hOAT3) | plasma concentrations [1] | protective effects on induced liver injury [2] | inhibitory effects on HBsAg and HBV-DNA replication (HBV) | safety and tolerability [3] | activity against lamivudine and entecavir-resistant HBV replication [4]
CN(C)CCOc1ccc(CC(NC(=O)c2ccccc2)C(=O)O)cc1 (stereo not shown) [M8] | not inhibited | not a substrate of hOAT1 |  |  |  |  |  | 
C=C1[C@H](CO)[C@@H](O)C[C@@H]1n1cnc2c(=O)[nH]c(N)nc21 [ETV, entecavir] |  |  | 23 µM | lower than 50 nM |  |  |  | 
CN(C)CCOc1ccc(C[C@H](NC(=O)c2ccccc2)C(=O)N[C@H](CO)Cc2ccccc2)cc1.Cl [Y101, N-[N-benzoyl-O-(2-dimethylaminoethyl)-l-tyrosyl]-l-phenylalaninol hydrochloride] | not inhibited | not a substrate of hOAT1 or hOAT3 |  |  | protective effects | potent inhibitory effects | acceptable safety and tolerability | significant activity
